Test results published in ChEMBL document CHEMBL4725493, “Novel 2-Aryloxazoline Compounds Exhibit an Inhibitory Effect on Candida spp., Including Antifungal-Resistant Isolates” (ACS Med Chem Lett, 2020).
In brackets after ≈: the same amount, converted by molar mass. Activity calls are given as the source filed them. The calls are words filed in the database; no cut-off is given here.

Key:
[1] = Selectivity index, ratio of HA50 to human RCB to MIC of antifungal activity against Candida tropicalis ATCC 200956; format: toxicity; conditions: human red blood cells (RCB)
Erythrocyte = assay: Hemolytic activity in human RBC by spectrophotometry; format: ADME, cell-based
Candida tropicalis = assay: Antifungal activity against Candida tropicalis ATCC 200956 by CLSI standard M27 broth microdilution method; format: functional
[2] = Selectivity index, ratio of CC50 of human HepG2 cells to MIC of antifungal activity against Candida tropicalis ATCC 200956; format: toxicity
HepG2 = assay: Cytotoxicity against human HepG2 cells assessed as reduction in cell viability by XTT assay; format: cell-based
[Candida] auris [3] = Antifungal activity against Candida auris CBS 10913 by CLSI standard M27 broth microdilution method; format: functional; conditions: Candidozyma auris
[4] = Antifungal activity against Candida pseudohaemulonis CBS 10004 by broth microdilution method; format: functional; conditions: Candidozyma pseudohaemuli
Cryptococcus neoformans = assay: Fungicidal activity against Cryptococcus neoformans ATCC 208821 assessed as loss of fungal growth by CLSI method; format: functional, organism-based
Cryptococcus gattii = assay: Fungicidal activity against Cryptococcus gattii ATCC 56990 assessed as loss of fungal growth by CLSI method; format: functional, organism-based; conditions: Cryptococcus bacillisporus
Aspergillus fumigatus = assay: Antifungal activity against Aspergillus fumigatus ATCC 16913 by CLSI standard M38 broth microdilution method; format: functional, organism-based
Aspergillus niger = assay: Antifungal activity against Aspergillus niger by CLSI standard M38 broth microdilution method; format: functional, organism-based
[Candida] auris [5] = Antifungal activity against Candida auris CBS 12766 by CLSI standard M27 broth microdilution method; format: functional; conditions: Candidozyma auris
Candida duobushaemulonii = assay: Antifungal activity against Candida duobushaemulonis CBS 7799 by CLSI standard M27 broth microdilution method; format: functional; conditions: Candidozyma duobushaemuli

| SMILES | selectivity ratio [1] | Activity (Erythrocyte) [µg/mL] | MIC (Candida tropicalis) [µg/mL] | selectivity ratio [2] | CC50 (HepG2) [µg/mL] | MIC ([Candida] auris [3]) [µg/mL] | MIC [4] [µg/mL] | Activity (Cryptococcus neoformans) | Activity (Cryptococcus gattii) | inhibition (Aspergillus fumigatus) | inhibition (Aspergillus niger) | MIC ([Candida] auris [5]) [µg/mL] | MIC (Candida duobushaemulonii) [µg/mL] |
| --- | --- | --- | --- | --- | --- | --- | --- | --- | --- | --- | --- | --- | --- |
| C#CCNC(=O)C1N=C(c2cc(Cl)c3ccccc3c2O)O[C@H]1C (single isomer, unassigned) | ≥ 512 | > 128 | ≤ 0.03 | ≥ 132 | 33 (≈ 96.3 µM) | – | – | – | – | – | – | – | – |
| COc1cccc(O)c1C1=N[C@@H](C(=O)OCc2ccccc2)[C@@H](C)O1 | ≥ 8 | > 128 | 0.12 (≈ 0.352 µM) | 6 | 101 (≈ 296 µM) | – | – | – | – | – | – | – | – |
| C[C@@H]1OC(c2cc(Cl)c3ccccc3c2O)=NC1C(=O)Nc1ccccc1NC(=O)[C@@H]1N=C(c2cc(Cl)c3ccccc3c2O)O[C@@H]1C (single isomer, unassigned) | ≥ 32 | > 128 | ≤ 0.03 | ≥ 23 | 90 (≈ 132 µM) | – | – | – | – | – | – | – | – |
| C[C@@H]1OC(c2cc(Cl)c3ccccc3c2O)=N[C@@H]1C(=O)OC[C@H]1COC(C)(C)O1 | ≥ 16 | > 128 | ≤ 0.03 | ≥ 1 | 7.2 (≈ 17.1 µM) | – | – | – | – | – | – | – | – |
| CCNC(=O)C1N=C(c2cc(Cl)c3ccccc3c2O)O[C@H]1C (single isomer, unassigned) | ≥ 128 | > 128 | 0.06 (≈ 0.18 µM) | ≥ 128 | – | – | – | – | – | – | – | – | – |
| C[C@@H]1OC(c2cc(Cl)c3ccccc3c2O)=NC1C(=O)Nc1ccc2ncsc2c1 (single isomer, unassigned) | ≥ 1070 | > 128 | ≤ 0.03 | ≥ 133 | 16 (≈ 36.5 µM) | 0.06 (≈ 0.137 µM) | 0.03 (≈ 0.0685 µM) | Active | Active | Active | Active | 2 (≈ 4.57 µM) | 0.06 (≈ 0.137 µM) |
| C[C@@H]1OC(c2ccc3ccccc3c2O)=N[C@@H]1C(=O)OCc1ccccc1 | ≥ 256 | > 128 | ≤ 0.03 | ≥ 176 | 88 (≈ 243 µM) | – | – | – | – | – | – | – | – |
| C[C@@H]1OC(c2cc(Cl)c3ccccc3c2O)=N[C@@H]1C(=O)OC/C=C/c1ccccc1 | ≥ 8 | > 128 | ≤ 0.03 | ≥ 1 | 10 (≈ 23.7 µM) | – | – | – | – | – | – | – | – |
| C[C@H]1OC(c2cc(F)ccc2O)=N[C@H]1C(=O)OCc1ccccc1 | ≥ 128 | > 128 | ≤ 0.03 | ≥ 128 | > 128 | – | – | – | – | – | – | – | – |
| C[C@@H]1OC(c2cc(Cl)c3ccccc3c2O)=NC1C(=O)OCc1ccoc1 (single isomer, unassigned) | ≥ 32 | > 128 | ≤ 0.03 | ≥ 2 | 6 (≈ 15.6 µM) | – | – | – | – | – | – | – | – |
| C[C@@H]1[C@H](O)[C@@H](C)/C=C/C=C/C=C/C=C/C=C/C=C/C=C/[C@H](O[C@@H]2O[C@H](C)[C@@H](O)[C@H](N)[C@@H]2O)C[C@@H]2O[C@](O)(C[C@@H](O)C[C@@H](O)[C@H](O)CC[C@@H](O)C[C@@H](O)CC(=O)O[C@H]1C)C[C@H](O)[C@H]2C(=O)O [AMPHOTERICIN B] | ≥ 68 | 17 | ≤ 0.03 | ≥ 16 | 4 (≈ 4.33 µM) | 0.5 (≈ 0.541 µM) | 8 (≈ 8.66 µM) | – | – | – | – | 2 (≈ 2.16 µM) | 4 (≈ 4.33 µM) |
| C[C@H]1OC(c2cc(Br)ccc2O)=N[C@H]1C(=O)OCc1ccccc1 | ≥ 128 | > 128 | ≤ 0.03 | ≥ 88 | 88 (≈ 226 µM) | – | – | – | – | – | – | – | – |
| COC(=O)C1N=C(c2cc(Cl)c3ccccc3c2O)O[C@H]1C (single isomer, unassigned) | ≥ 16 | > 128 | 0.25 (≈ 0.782 µM) | 1 | 11 (≈ 34.4 µM) | – | – | – | – | – | – | – | – |
| COc1ccc(O)c(C2=N[C@@H](C(=O)OCc3ccccc3)[C@@H](C)O2)c1 | ≥ 32 | > 128 | ≤ 0.03 | 25 | 100 (≈ 293 µM) | – | – | – | – | – | – | – | – |
| C[C@H]1OC(c2ccc(Cl)cc2O)=N[C@H]1C(=O)OCc1ccccc1 | ≥ 512 | > 128 | ≤ 0.03 | ≥ 380 | 95 (≈ 275 µM) | 0.06 (≈ 0.174 µM) | 0.25 (≈ 0.723 µM) | Active | Active | Active | Active | 2 (≈ 5.78 µM) | 0.5 (≈ 1.45 µM) |
| C[C@H]1OC(c2ccc(I)cc2O)=N[C@H]1C(=O)OCc1ccccc1 | ≥ 128 | > 128 | ≤ 0.03 | ≥ 62 | 62 (≈ 142 µM) | – | – | – | – | – | – | – | – |
| C[C@@H](O)[C@H](NC(=O)c1ccc2ccccc2c1O)C(=O)OCc1ccccc1 | > 8 | > 128 | 8 (≈ 21.1 µM) | 3 | 40 (≈ 105 µM) | – | – | – | – | – | – | – | – |
| C[C@@H]1OC(c2cc(Br)c3ccccc3c2O)=N[C@@H]1C(=O)OCc1ccccc1 (single isomer, unassigned) | ≥ 256 | > 128 | ≤ 0.03 | ≥ 18 | 9 (≈ 20.4 µM) | – | – | – | – | – | – | – | – |
| CC[C@H](C)C[C@H](C)CCCCCCCCC(=O)N[C@H]1C[C@@H](O)[C@@H](NCCN)NC(=O)[C@@H]2[C@@H](O)CCN2C(=O)[C@H]([C@H](O)CCN)NC(=O)[C@H]([C@H](O)[C@@H](O)c2ccc(O)cc2)NC(=O)[C@@H]2C[C@@H](O)CN2C(=O)[C@H]([C@@H](C)O)NC1=O [CASPOFUNGIN] | ≥ 16 | – | ≤ 0.03 | 16 | 32 (≈ 29.3 µM) | 0.12 (≈ 0.11 µM) | 0.5 (≈ 0.457 µM) | – | – | – | – | 0.25 (≈ 0.229 µM) | 0.25 (≈ 0.229 µM) |
| C=CCOC(=O)C1N=C(c2cc(Cl)c3ccccc3c2O)O[C@H]1C (single isomer, unassigned) | ≥ 128 | > 128 | ≤ 0.03 | ≥ 11 | 11 (≈ 31.8 µM) | – | – | – | – | – | – | – | – |
| OC(Cn1cncn1)(Cn1cncn1)c1ccc(F)cc1F [FLUCONAZOLE] | ≥ 1 | > 128 | 1 (≈ 3.27 µM) | ≥ 1 | > 128 | 2 (≈ 6.53 µM) | 16 (≈ 52.2 µM) | – | – | – | – | > 0.064 | > 64 |
| C[C@H]1OC(c2ccccc2O)=N[C@H]1C(=O)OCc1ccccc1 | ≥ 32 | > 128 | ≤ 0.03 | ≥ 26 | 102 (≈ 328 µM) | – | – | – | – | – | – | – | – |
| COC(=O)[C@H]1N=C(c2ccc3ccccc3c2O)O[C@H]1C | ≥ 8 | > 128 | 0.06 (≈ 0.21 µM) | 5 | 84 (≈ 294 µM) | – | – | – | – | – | – | – | – |
| C[C@@H]1OC(c2cc(Cl)c3ccccc3c2O)=N[C@@H]1C(=O)OCc1ccccc1 | ≥ 64 | > 128 | 0.06 (≈ 0.152 µM) | 8 | 15 (≈ 37.9 µM) | – | – | – | – | – | – | – | – |
| C[C@H]1OC(c2ccc(Br)cc2O)=N[C@H]1C(=O)OCc1ccccc1 | ≥ 128 | > 128 | 0.06 (≈ 0.154 µM) | 62 | 62 (≈ 159 µM) | – | – | – | – | – | – | – | – |
| CCNC(=O)[C@H]1N=C(c2ccc3ccccc3c2O)O[C@H]1C | ≥ 128 | > 128 | ≤ 0.03 | ≥ 128 | > 128 | – | – | – | – | – | – | – | – |
| C[C@H]1OC(c2cc(I)ccc2O)=N[C@H]1C(=O)OCc1ccccc1 | ≥ 128 | > 128 | ≤ 0.03 | ≥ 64 | 64 (≈ 146 µM) | – | – | – | – | – | – | – | – |
| C[C@H]1OC(c2ccc(N=[N+]=[N-])cc2O)=N[C@H]1C(=O)OCc1ccccc1 | ≥ 128 | > 128 | ≤ 0.03 | ≥ 100 | 100 (≈ 284 µM) | – | – | – | – | – | – | – | – |
